Measurements: patent EP4786469A1, “TRIAZOLE-CONTAINING COMPOUND, AND PREPARATION METHOD AND USE THEREFOR” (Tuojie Biotech (Shanghai) Co., Ltd., priority 2023, dated 2025)

molecular target: human recombinant αvβ6 protein (Homo sapiens, UniProt P06756+P18564); experiment: αvβ6 binding assay using fluorescence polarization (FP), competition with a fluorescently labeled RGD peptide; conditions: 12 concentration points, highest 10 µM, read-out: αvβ6 IC50
Experimental: αvβ6 binding assay using fluorescence polarization (FP) method The analysis was based on competition with a fluorescently labeled RGD peptide for binding to αvβ6. The binding abilities of the test compounds were evaluated and screened according to FP value changes.
The test compounds (3.5 µL) were added to a 384-well black plate. For each test compound, 12 concentration points were set. The highest concentration was 10 µM, and was serially diluted 3-fold. DMSO control wells were used to determine the maximum signal, and 500 nM compound CWHM-12 [drawing 318]
HY-18644) control wells were used as the minimum signal.Then, 3.5 µL of a 4× human recombinant αvβ6 protein working solution (Acrobiosystem) was added. After 15 min of incubation at room temperature, 7 µL of a 2× fluorescent RGD peptide solution (Sangon Biotech) was added to each well. After 1 h of incubation at room temperature, FP signals were read using Envision. GraphPad Prism was used to fit inhibition curves and calculate IC50 values.
The IC50 values (Z factor > 0.5) were calculated using the following formula: Curve fitting formula: Y = Bottom + (Top - Bottom)/(1 + 10^((LogIC50 - X) × Hill Slope)) X: logarithmic value of inhibitor concentration; Y: inhibition percentage; Bottom: minimum response; Top: maximum response; Hill Slope: curve slope. Table 1. Data on the abilities of the compounds (III-h')-(III-m') of the present disclosure to bind to αvβ6

Sequence of human recombinant αvβ6 protein (P06756 31-992 limits assumed): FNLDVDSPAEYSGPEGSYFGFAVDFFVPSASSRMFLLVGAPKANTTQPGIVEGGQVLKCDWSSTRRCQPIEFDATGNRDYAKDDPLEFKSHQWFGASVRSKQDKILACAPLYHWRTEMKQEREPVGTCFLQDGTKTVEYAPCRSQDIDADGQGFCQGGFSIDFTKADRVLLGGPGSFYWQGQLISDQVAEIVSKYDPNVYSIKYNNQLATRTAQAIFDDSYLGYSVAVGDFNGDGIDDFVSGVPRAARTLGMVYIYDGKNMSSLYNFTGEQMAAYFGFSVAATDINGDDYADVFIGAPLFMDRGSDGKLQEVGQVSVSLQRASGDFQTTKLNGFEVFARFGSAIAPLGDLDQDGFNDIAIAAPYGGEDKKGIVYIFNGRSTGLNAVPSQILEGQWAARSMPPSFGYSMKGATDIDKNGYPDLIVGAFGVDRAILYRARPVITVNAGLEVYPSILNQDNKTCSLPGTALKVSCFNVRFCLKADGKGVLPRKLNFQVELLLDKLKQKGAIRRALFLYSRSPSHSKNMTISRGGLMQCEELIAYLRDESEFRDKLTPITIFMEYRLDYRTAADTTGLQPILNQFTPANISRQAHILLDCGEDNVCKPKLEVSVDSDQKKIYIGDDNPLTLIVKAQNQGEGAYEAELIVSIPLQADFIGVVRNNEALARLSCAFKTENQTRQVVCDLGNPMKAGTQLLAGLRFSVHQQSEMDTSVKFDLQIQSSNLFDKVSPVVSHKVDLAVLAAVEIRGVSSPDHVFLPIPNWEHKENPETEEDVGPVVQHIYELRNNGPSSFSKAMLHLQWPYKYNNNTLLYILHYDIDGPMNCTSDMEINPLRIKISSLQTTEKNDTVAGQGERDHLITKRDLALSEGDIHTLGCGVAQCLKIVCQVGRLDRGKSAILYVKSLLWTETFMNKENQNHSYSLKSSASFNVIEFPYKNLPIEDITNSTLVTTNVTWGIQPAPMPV
Sequence of human recombinant αvβ6 protein (P18564 22-707 limits assumed): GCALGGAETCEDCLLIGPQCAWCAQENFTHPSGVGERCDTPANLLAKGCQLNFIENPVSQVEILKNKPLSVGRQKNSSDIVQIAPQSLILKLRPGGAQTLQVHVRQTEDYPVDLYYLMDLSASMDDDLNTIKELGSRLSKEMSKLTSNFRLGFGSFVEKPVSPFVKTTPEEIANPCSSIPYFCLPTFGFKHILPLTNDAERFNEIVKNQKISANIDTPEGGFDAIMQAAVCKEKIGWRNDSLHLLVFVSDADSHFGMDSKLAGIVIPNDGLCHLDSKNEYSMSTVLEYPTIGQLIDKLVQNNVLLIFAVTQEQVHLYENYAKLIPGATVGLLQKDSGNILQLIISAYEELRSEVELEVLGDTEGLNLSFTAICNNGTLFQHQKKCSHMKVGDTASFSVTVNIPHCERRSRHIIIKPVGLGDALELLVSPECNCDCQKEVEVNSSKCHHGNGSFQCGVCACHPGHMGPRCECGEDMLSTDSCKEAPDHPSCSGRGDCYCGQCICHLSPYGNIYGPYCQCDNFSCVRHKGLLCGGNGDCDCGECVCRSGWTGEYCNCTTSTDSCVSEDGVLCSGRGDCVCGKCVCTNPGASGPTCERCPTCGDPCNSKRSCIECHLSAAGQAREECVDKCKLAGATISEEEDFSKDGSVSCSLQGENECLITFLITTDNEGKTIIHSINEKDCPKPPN

| IC50 [nM] | Structure (SMILES) |
| --- | --- |
| 1.6 | Cc1ccnc(NCCCC(=O)NCC(=O)N[C@@H](CC(=O)O)c2ccc(-c3ccc(OCCOCCOCCOCCOCCN=[N+]=[N-])c4ccccc34)cc2)c1 [SM6.1-αvβ6, reference compound] |
| 2.29 | [N-]=[N+]=NCCOCCOCCOCCOCCOc1ccc(-c2ccc([C@H](CC(=O)O)NC(=O)CNC(=O)CCCc3ccc4c(n3)NCCC4)cc2)c2ccccc12 [III-k'] |
| 1.67 | [N-]=[N+]=NCCOCCOCCOCCOCCOc1ccc(-c2ccc([C@H](CC(=O)O)NC(=O)CNC(=O)CCc3ccc4c(n3)NCCC4)cc2)c2ccccc12 [III-l'] |
| 1.47 | [N-]=[N+]=NCCOCCOCCOCCOCCOc1ccc(-c2ccc([C@H](CC(=O)O)NC(=O)CNC(=O)CCCNc3cc4c(cn3)CCCC4)cc2)c2ccccc12 [III-m'] |

same assay, conditions: read-out: αvβ6 IC50, 12 concentration points, highest 10 µM

| Structure (SMILES) | IC50 [nM] |
| --- | --- |
| Cc1ccnc(NCCNC(=O)NCC(=O)N[C@@H](CC(=O)O)c2ccc(-c3ccc(OCCOCCOCCOCCOCCN=[N+]=[N-])c4ccccc34)cc2)c1 [III-i'] | 2.47 |
| Cc1ccnc(NCCOC(=O)NCC(=O)N[C@@H](CC(=O)O)c2ccc(-c3ccc(OCCOCCOCCOCCOCCN=[N+]=[N-])c4ccccc34)cc2)c1 [III-h'] | 0.856 |
| [N-]=[N+]=NCCOCCOCCOCCOCCOc1ccc(-c2ccc([C@H](CC(=O)O)NC(=O)CNC(=O)CCCNc3nccs3)cc2)c2ccccc12 [III-j'] | 1.98 |
